Test results as given in US9556165B2 (priority 2012, dated 2017).
≈ marks a conversion by molar mass, not a printed value. Where two headings read alike, the source gives them in different places.

What was measured:
Format in all cases: cell-based
E. coli ATCC25922 = experiment: MIC determination, broth microdilution (CLSI); settings: for MIC: Escherichia coli, ATCC25922, strain 1
[1] = test system: P. aeruginosa 2297-con (AmpC derepressed); experiment: MIC determination, broth microdilution (CLSI); settings: Pseudomonas aeruginosa, read-out: strain 8 MIC, strain 8
E. cloacae 34654 = experiment: MIC determination, broth microdilution (CLSI); settings: Enterobacter cloacae, 34654, strain 3
C. freundii K21/3034 = experiment: MIC determination, broth microdilution (CLSI); settings: Citrobacter freundii, K21/3034, strain 4
Bacteria = experiment: MIC determination in combination with β-lactamase inhibitors (constant 4 μg/mL)
S. aureus 133 = experiment: MIC determination, broth microdilution (CLSI)
[2] = test system: P. aeruginosa 2297 (AmpC wt); experiment: MIC determination, broth microdilution (CLSI); settings: Pseudomonas aeruginosa, strain 7
P. aeruginosa PAO1 = experiment: MIC determination, broth microdilution (CLSI); settings: Pseudomonas aeruginosa, PAO1, strain 6
M. morganii 126/3048 = experiment: MIC determination, broth microdilution (CLSI); settings: Morganella morganii, 126/3048, strain 5
E. coli J62 = experiment: MIC determination, broth microdilution (CLSI); settings: Escherichia coli, J62, strain 17; broth microdilution; read-out: MIC strain 17 (E. coli J62)
A. baumannii ATCC15308 = experiment: MIC determination, broth microdilution (CLSI); settings: Acinetobacter baumannii, ATCC15308, strain 9
K. pneumoniae 60 = experiment: MIC determination, broth microdilution (CLSI); settings: Klebsiella pneumoniae, 60, strain 2
E. coli J62-TEM-3 = experiment: MIC determination, broth microdilution (CLSI); settings: Escherichia coli, J62TEM3, read-out: MIC strain 18 (E. coli J62-TEM-3), strain 18; broth microdilution
B. fragilis 6688 = experiment: MIC determination, broth microdilution (CLSI); settings: Bacteroides fragilis, 6688, strain 15; broth microdilution; read-out: MIC strain 15 (B. fragilis 6688)
H. influenzae ATCC 49247 = experiment: MIC determination, broth microdilution (CLSI); settings: Haemophilus influenzae, ATCC49247, strain 12; broth microdilution; read-out: MIC strain 12 (H. influenzae ATCC 49247)
S. pneumoniae 113 = experiment: MIC determination, broth microdilution (CLSI); settings: Streptococcus pneumoniae, 113, strain 13; broth microdilution; read-out: MIC strain 13 (S. pneumoniae 113)
[3] = Staphylococcus aureus, 133, strain 14, broth microdilution, read-out: MIC strain 14 (S. aureus 133)
[4] = Staphylococcus aureus, 133, strain 11, read-out: strain 11 MIC

Compound | MIC (E. coli ATCC25922) | MIC [1] | MIC (E. cloacae 34654) | MIC (C. freundii K21/3034) | MIC strain 19 (E. coli J62-TEM-3 + 4 μg/mL clavulanic acid) (Bacteria) | MIC strain 20 (E. coli J62-TEM-3 + 4 μg/mL sulbactam) (Bacteria) | MIC strain 21 (E. coli J62-TEM-3 + 4 μg/mL tazobactam) (Bacteria) | MIC (S. aureus 133; [3]) | MIC [2] | MIC (P. aeruginosa PAO1) | MIC (M. morganii 126/3048) | MIC (E. coli J62) | MIC (A. baumannii ATCC15308) | MIC (K. pneumoniae 60) | MIC (E. coli J62-TEM-3) | MIC (S. aureus 133; [4]) | MIC (B. fragilis 6688) | MIC (H. influenzae ATCC 49247) | MIC (S. pneumoniae 113) | strain 1 MIC (E. coli ATCC25922; strain 1)
C[C@H]1[C@H](NC(=O)/C(=N\OCCOc2cccc(C(=N)N)c2)c2csc(N)n2)C(=O)N1S(=O)(=O)O [Example 53, (2S,3S)-3-{[(2Z)-2-(2-Amino-1,3-thiazol-4-yl)-2-{[2-(3-carbamimidoylphenoxy)ethoxy]imino}acetyl]amino}-2-methyl-4-oxoazetidine-1-sulfonic acid] | 0.5 µg/mL (≈ 0.977 µM) | 32 µg/mL (≈ 62.6 µM) | 0.5 µg/mL (≈ 0.977 µM) | 0.5 µg/mL (≈ 0.977 µM) | 1 µg/mL | 1 µg/mL | 1 µg/mL | 32 µg/mL (≈ 62.6 µM) | 16 µg/mL (≈ 31.3 µM) | 16 µg/mL (≈ 31.3 µM) | 2 µg/mL (≈ 3.91 µM) | 1 µg/mL (≈ 1.95 µM) | 4 µg/mL (≈ 7.82 µM) |  |  |  |  |  |  | 
CC(C)NC(=N)c1ccc(OCCO/N=C(\C(=O)N[C@@H]2C(=O)N(S(=O)(=O)O)[C@H]2C)c2csc(N)n2)cc1 [Example 54, (2S,3S)-3-({(2Z)-2-(2-Amino-1,3-thiazol-4-yl)-2-[(2-{4-[N-(propan-2-yl)carbamimidoyl]phenoxy}ethoxy)imino]acetyl}amino)-2-methyl-4-oxoazetidine-1-sulfonic acid] | 0.5 µg/mL (≈ 0.903 µM) |  | 0.5 µg/mL (≈ 0.903 µM) | 0.25 µg/mL (≈ 0.452 µM) | 0.5 µg/mL | 0.25 µg/mL | 0.5 µg/mL | 2 µg/mL (≈ 3.61 µM) | 8 µg/mL (≈ 14.5 µM) | 4 µg/mL (≈ 7.23 µM) | 1 µg/mL (≈ 1.81 µM) | 0.5 µg/mL (≈ 0.903 µM) | 4 µg/mL (≈ 7.23 µM) | 0.5 µg/mL (≈ 0.903 µM) | 16 µg/mL (≈ 28.9 µM) |  |  |  |  | 
C[C@H]1[C@H](NC(=O)/C(=N\OCCOCc2cc(C(=N)N)cs2)c2csc(N)n2)C(=O)N1S(=O)(=O)O [Example 56, (2S,3S)-3-{[(2Z)-2-(2-Amino-1,3-thiazol-4-yl)-2-({2-[(4-carbamimidoylthiophen-2-yl)methoxy]ethoxy}imino)acetyl]amino}-2-methyl-4-oxoazetidine-1-sulfonic acid] | 2 µg/mL (≈ 3.76 µM) |  | 4 µg/mL (≈ 7.52 µM) | 0.5 µg/mL (≈ 0.941 µM) | 1 µg/mL | 4 µg/mL | 4 µg/mL | 8 µg/mL (≈ 15 µM) | 32 µg/mL (≈ 60.2 µM) | 32 µg/mL (≈ 60.2 µM) | 0.5 µg/mL (≈ 0.941 µM) | 2 µg/mL (≈ 3.76 µM) | 4 µg/mL (≈ 7.52 µM) | 0.5 µg/mL (≈ 0.941 µM) | 32 µg/mL (≈ 60.2 µM) | 1 µg/mL (≈ 1.88 µM) | 32 µg/mL (≈ 60.2 µM) | 2 µg/mL (≈ 3.76 µM) | 4 µg/mL (≈ 7.52 µM) | 
C[C@H]1[C@H](NC(=O)/C(=N\OCCOc2nnc(C(=N)N)s2)c2csc(N)n2)C(=O)N1S(=O)(=O)O [Example 65, (2S,3S)-3-{[(2Z)-2-(2-Amino-1,3-thiazol-4-yl)-2-({2-[(5-carbamimidoyl-1,3,4-thiadiazol-2-yl)oxy]ethoxy}imino)acetyl]amino}-2-methyl-4-oxoazetidine-1-sulfonic acid] | 0.5 µg/mL (≈ 0.962 µM) |  | 0.5 µg/mL (≈ 0.962 µM) | 0.25 µg/mL (≈ 0.481 µM) | 0.5 µg/mL | 1 µg/mL | 2 µg/mL | 8 µg/mL (≈ 15.4 µM) | 32 µg/mL (≈ 61.6 µM) | 16 µg/mL (≈ 30.8 µM) | 0.125 µg/mL (≈ 0.241 µM) | 1 µg/mL (≈ 1.92 µM) | 8 µg/mL (≈ 15.4 µM) | 0.25 µg/mL (≈ 0.481 µM) | 32 µg/mL (≈ 61.6 µM) | 0.25 µg/mL (≈ 0.481 µM) | 16 µg/mL (≈ 30.8 µM) | 0.5 µg/mL (≈ 0.962 µM) | 1 µg/mL (≈ 1.92 µM) | 
C[C@H]1[C@H](NC(=O)/C(=N\OCCOc2ccc(C(=N)NCCOC=O)cc2)c2csc(N)n2)C(=O)N1S(=O)(=O)O [Example 70, (2S,3S)-3-{[(2Z)-2-(2-Amino-1,3-thiazol-4-yl)-2-{[2-(4-{N-[2-(formyloxy)ethyl]carbamimidoyl}phenoxy)ethoxy]imino}acetyl]amino}-2-methyl-4-oxoazetidine-1-sulfonic acid] | 0.125 µg/mL (≈ 0.214 µM) |  | 0.25 µg/mL (≈ 0.428 µM) | 0.125 µg/mL (≈ 0.214 µM) | 0.25 µg/mL | 0.25 µg/mL | 0.25 µg/mL | 8 µg/mL (≈ 13.7 µM) | 4 µg/mL (≈ 6.85 µM) | 4 µg/mL (≈ 6.85 µM) | 0.125 µg/mL (≈ 0.214 µM) | 0.25 µg/mL (≈ 0.428 µM) | 2 µg/mL (≈ 3.43 µM) | 0.25 µg/mL (≈ 0.428 µM) | 16 µg/mL (≈ 27.4 µM) | 0.125 µg/mL (≈ 0.214 µM) | 16 µg/mL (≈ 27.4 µM) | 0.125 µg/mL (≈ 0.214 µM) | 0.5 µg/mL (≈ 0.857 µM) | 
C[C@H]1[C@H](NC(=O)/C(=N\OCCOc2cc(C(=N)N)n(C)n2)c2csc(N)n2)C(=O)N1S(=O)(=O)O [Example 72, (2S,3S)-3-{[(2Z)-2-(2-Amino-1,3-thiazol-4-yl)-2-({2-[(5-carbamimidoyl-1-methyl-1H-pyrazol-3-yl)oxy]ethoxy}imino)acetyl]amino}-2-methyl-4-oxoazetidine-1-sulfonic acid] | 0.5 µg/mL (≈ 0.97 µM) |  | 1 µg/mL (≈ 1.94 µM) | 0.5 µg/mL (≈ 0.97 µM) | 1 µg/mL | 1 µg/mL | 1 µg/mL | 16 µg/mL (≈ 31 µM) | 8 µg/mL (≈ 15.5 µM) | 8 µg/mL (≈ 15.5 µM) | 0.25 µg/mL (≈ 0.485 µM) | 1 µg/mL (≈ 1.94 µM) | 4 µg/mL (≈ 7.76 µM) | 0.25 µg/mL (≈ 0.485 µM) | 32 µg/mL (≈ 62.1 µM) | 0.25 µg/mL (≈ 0.485 µM) | 16 µg/mL (≈ 31 µM) | 0.5 µg/mL (≈ 0.97 µM) | 2 µg/mL (≈ 3.88 µM) | 
C[C@H]1[C@H](NC(=O)/C(=N\OCCOc2ccc(C(=N)NCCN)cc2)c2csc(N)n2)C(=O)N1OCS(=O)(=O)O [Example 77, {[(2S,3S)-3-{[(2Z)-2-[(2-{4-[N-(2-Aminoethyl)carbamimidoyl]phenoxy}ethoxy)imino]-2-(2-amino-1,3-thiazol-4-yl)acetyl]amino}-2-methyl-4-oxoazetidin-1-yl]oxy}methanesulfonic acid] | 0.5 µg/mL (≈ 0.855 µM) |  | 2 µg/mL (≈ 3.42 µM) | 0.5 µg/mL (≈ 0.855 µM) | 1 µg/mL | 1 µg/mL | 1 µg/mL |  | 16 µg/mL (≈ 27.4 µM) | 8 µg/mL (≈ 13.7 µM) | 2 µg/mL (≈ 3.42 µM) | 0.5 µg/mL (≈ 0.855 µM) | 8 µg/mL (≈ 13.7 µM) | 2 µg/mL (≈ 3.42 µM) | 16 µg/mL (≈ 27.4 µM) |  |  |  |  | 
CC1(C)[C@H](NC(=O)/C(=N\O[C@H](COc2ccc(C(=N)NCc3ncc[nH]3)cc2)C(=O)O)c2csc(N)n2)C(=O)N1OS(=O)(=O)O [Example 105, (2R)-2-({[(1Z)-1-(2-Amino-1,3-thiazol-4-yl)-2-{[(3S)-2,2-dimethyl-4-oxo-1-(sulfooxy)-azetidin-3-yl]amino}-2-oxoethylidene]amino}oxy)-3-{4-[N-(1H-imidazol-2-ylmeth-yl)carbamimidoyl]phenoxy}propanoic acid] |  |  |  |  |  |  |  |  |  |  |  |  |  |  |  |  |  |  |  | 16 µg/mL
CC1(C)[C@H](NC(=O)/C(=N\O[C@H](COc2ccc(C(=N)NCCNc3ncccn3)cc2)C(=O)O)c2csc(N)n2)C(=O)N1OS(=O)(=O)O [Example 111, (2R)-2-({[(1Z)-1-(2-Amino-1,3-thiazol-4-yl)-2-{[(3S)-2,2-dimethyl-4-oxo-1-(sulfooxy)-azetidin-3-yl]amino}-2-oxoethylidene]amino}oxy)-3-(4-{N-[2-(pyrimidin-2-ylamino)ethyl]carbamimidoyl}phenoxy)propanoic acid] | 8 µg/mL (≈ 11.3 µM) | 32 µg/mL (≈ 45.3 µM) | 16 µg/mL (≈ 22.6 µM) | 4 µg/mL (≈ 5.66 µM) | 8 µg/mL | 8 µg/mL | 8 µg/mL |  | 32 µg/mL (≈ 45.3 µM) | 32 µg/mL (≈ 45.3 µM) | 8 µg/mL (≈ 11.3 µM) | 16 µg/mL (≈ 22.6 µM) | 32 µg/mL (≈ 45.3 µM) | 8 µg/mL (≈ 11.3 µM) | 32 µg/mL (≈ 45.3 µM) |  |  | 0.25 µg/mL (≈ 0.354 µM) | 2 µg/mL (≈ 2.83 µM) | 
